# Experimental data from US20050282824A1, “Substituted pyrimidines as inhibitors of bacterial type III protein secretion systems” (priority 2004, published 2005).
# Key:
# Type in all cases: cell-based
# [1] = system: Type III protein secretion of ExoU by P. aeruginosa PA103; assay: Tertiary assay: Type III-dependent secretion of ExoU by P. aeruginosa PA103; conditions: Pseudomonas aeruginosa, read-out: ExoU IC50(uM)
# Excerpt: Tertiary assay: inhibition of Type III protein secretion of effectors from a Pseudomonas aeruginosa system. Type III protein secretion is used by P. aeruginosa to secrete several essential virulence determinants. One effector of the type III protein secretion system of P. aeruginosa PA 103 is the virulence determinants ExoU.
# The amount of Type III-dependent secretion of ExoU by P. aeruginosa PA103 can be determined in a cell-based assay by quantification of the 73.9 kDa ExoU protein secreted into the extracellular medium. Such quantitation can be achieved by growing strain PA 103 in a deferrated medium in the presence of nitrilotriacetic acid (an inducer of Type III protein secretion in P. aeruginosa) and either in the presence or absence of putative inhibitors. After a prolonged growth period, the cells are sedimented and the supernatants concentrated by ammonium sulfate precipitation. The proteins in the resuspended pellets are separated by electrophoresis on SDS-polyacrylamide gels. After staining gels with Colloidal Blue™, the 73.9 kDa ExoU band is quantitated by scanning through an imager. The effects of inhibitors on the intensity of the ExoU band may be measured relative to that of untreated controls.
# [2] = system: SPI1 type III protein secretion of SopE'-'Bla by Salmonella enterica; assay: Primary assay: Type III protein secretion of the chimeric SopE'-'Bla polypeptide by Salmonella enterica; conditions: read-out: SopE IC50(uM)
# Excerpt: Primary assay: Type III protein secretion of the chimeric SopE′-′Bla polypeptide by Salmonella enterica. This procedure is a cell-based assay that measures the type III-dependent secretion by Salmonella enterica of a plasmid-encoded chimeric polypeptide whose synthesis can be regulated, and which is endowed with an enzymatic activity that can be monitored […] by hydrolysis of a substrate that is unable to penetrate into the bacterial cytoplasm within the time constraints of the reaction. Thus, the colorimetric reaction is not influenced by SopE′-′Bla polypeptide in the bacterial cytoplasm. Instead, it effectively measures the amount of polypeptide that has been secreted from the S. enterica cytoplasm to the extracellular medium via type III system protein secretion.
# The SopE′-′Bla recombinant polypeptide consists of two functionally distinct domains spliced together. The N-terminus domain is encoded by a polynucleotide region specifying the signal for type III secretion of the SopE polypeptide of S. enterica, an effector of the SPI1 type III protein secretion system. The C-terminus domain of SopE′-′Bla consists of a 263 amino acid peptide sequence that corresponds to the TEM-1 β-lactamase expressed by plasmid pBR322 but without its N-terminal signal sequence. The TEM-1 β-lactamase part of the SopE′-′Bla chimeric polypeptide is used as a reporter enzyme. It is capable of hydrolyzing nitrocefin resulting in a product whose accumulation can be monitored by colorimetric detection. The secretion of the SopE′-′Bla chimeric polypeptide from the cytoplasm to the extracellular medium is dependent on type III protein secretion.
# For this procedure, cells grown under conditions known to favor a functional SPI1 secretion system are induced for expression of the SopE′-′Bla protein and grown either in the presence or in the absence of putative inhibitors for determined time. Nitrocefin is then added to the various cultures and its hydrolysis are used for quantitation. An inhibitor of Type III protein secretion is generally a compound that reduces the signal of the enzymatic reaction by decreasing the amount of SopE′-′Bla secreted into the extracellular medium.
# [3] = system: SPI1 type III protein secretion of SipB by S. enterica; assay: Secondary assay: Type III-dependent protein secretion of the SipB polypeptide by S. enterica; conditions: Salmonella enterica, read-out: SipB IC50(uM)
# Procedure: Secondary assay: Type III-dependent protein secretion of the SipB polypeptide by S. enterica. The SipB protein of S. enterica is another effector of the SPI1 type III protein secretion system from S. enterica. In this cell-based procedure, the Type III-dependent secretion of SipB from the bacterial cytoplasm to the extracellular medium was measured through its reactivity with a cognate mouse monoclonal.
# Salmonella enterica cells growing either in the presence or in the absence of inhibitors are induced for the production of SipB. Following an established period of growth the cells are sedimented and the amount of SipB present in the supernatant is quantified with a scanning imager following application of immunoblot techniques. Detection may employ an anti-SipB mouse monoclonal antibody (e.g., obtained from Jorge Galan, SUNY at Stony Brook, N.Y.) followed by treatment with commercially available sheep anti-mouse polyclonal antibody conjugated with horseradish peroxidase. Thereafter the membrane is treated with a peroxidase chemiluminescent substrate and exposed to film for an appropriate exposure time. Inhibition may be measured relative to untreated controls.
Compound,IC50 [1] [µM],IC50 [2] [µM],IC50 [3] [µM]
"O=C(NC(Cc1ccc(Cl)cc1)C(=O)O)c1cc(-c2cccc(C(F)(F)F)c2)nc(N2CCN(c3ccccc3)CC2)n1 (stereo in doubt) [Compound 31, (R)-3-(4-Chlorophenyl)-2-{[2-(4-phenyl-piperazin-1-yl)-6-(3-trifluoromethylphenyl)pyrimidine-4-carbonyl]amino}propionic acid]",88.7,4.1,13.3
"O=C(N[C@H](Cc1ccc(Cl)cc1)C(=O)O)c1cc(N2CCc3ccccc3C2)nc(-c2cccc(C(F)(F)F)c2)n1 [Compound 7, (R)-3-(4-Chlorophenyl)-2-{[6-(3,4-dihydro-1H-isoquinolin-2-yl)-2-(3-trifluoromethylphenyl)pyrimidine-4-carbonyl]amino}propionic acid]",,1.2,> 100
"O=C(N[C@H](Cc1ccc(Cl)cc1)C(=O)O)c1cc(N2CCc3ccccc3C2)nc(-c2ccc(C(F)(F)F)cc2)n1 [Compound 8, (R)-3-(4-Chlorophenyl)-2-{[6-(3,4-dihydro-1H-isoquinolin-2-yl)-2-(4-trifluoromethylphenyl)pyrimidine-4-carbonyl]amino}propionic acid]",,2,> 100
"N#Cc1ccc(-c2nc(C(=O)N[C@H](Cc3ccc(Cl)cc3)C(=O)O)cc(N3CCc4ccccc4C3)n2)cc1 [Compound 10, (R)-3-(4-Chlorophenyl)-2-{[2-(4-cyanophenyl)-6-(3,4-dihydro-1H-isoquinolin-2-yl)pyrimidine-4-carbonyl]amino}propionic acid]",,4.3,> 100
"O=C(N[C@@H](CSCc1ccccc1)C(=O)O)c1cc(N2CCN(c3ccccc3)CC2)nc(-c2ccc(Cl)c(Cl)c2)n1 [Compound 20, (R)-3-Benzylsulfanyl-2-{[2-(3,4-dichlorophenyl)-6-(4-phenyl-piperazin-1-yl)-pyrimidine-4-carbonyl]amino}propionic acid]",,2.1,> 100
"O=C(N[C@@H](COCc1ccccc1)C(=O)O)c1cc(N2CCCCC2)nc(N2CCC(c3ccccc3)CC2)n1 [Compound 28, (S)-3-Benzyloxy-2-{[2-(4-phenylpiperidin-1-yl)-6-piperidin-1-yl-pyrimidine-4-carbonyl]amino}propionic acid]",,5.2,18.5
"CC1CCN(c2cc(C(=O)N[C@@H](CSCc3ccccc3)C(=O)O)nc(-c3ccc(Oc4ccccc4)cc3)n2)CC1 [Compound 37, (R)-3-Benzylsulfanyl-2-{[6-(4-methylpiperidin-1-yl)-2-(4-phenoxyphenyl)-pyrimidine-4-carbonyl]amino}propionic acid]",,1.7,> 100
"CN1CCN(c2nc(C(=O)N[C@@H](CSCc3ccccc3)C(=O)O)cc(N3CCN(c4nccc(C(F)(F)F)n4)CC3)n2)CC1 [Compound 44, (R)-3-Benzylsulfanyl-2-({2-(4-methyl-piperazin-1-yl)-6-[4-(4-trifluoromethyl-pyrimidin-2-yl)piperazin-1-yl]pyrimidine-4-carbonyl}amino)propionic acid]",,85,> 100
"CC1CCN(c2nc(C(=O)N[C@@H](CSCc3ccccc3)C(=O)O)cc(N3CCN(c4nccc(C(F)(F)F)n4)CC3)n2)CC1 [Compound 46, (R)-3-Benzylsulfanyl-2-({2-(4-methylpiperidin-1-yl)-6-[4-(4-trifluoromethyl-pyrimidin-2-yl)piperazin-1-yl]pyrimidine-4-carbonyl}amino)propionic acid]",,3.4,10.6
"CN(C)c1ccc(-c2nc(C(=O)N[C@@H](CSCc3ccccc3)C(=O)O)cc(N3CCN(c4nccc(C(F)(F)F)n4)CC3)n2)cc1 [Compound 50, (R)-3-Benzylsulfanyl-2-({2-(4-dimethylaminophenyl)-6-[4-(4-trifluoromethyl-pyrimidin-2-yl)piperazin-1-yl]pyrimidine-4-carbonyl}amino)propionic acid]",,20.1,> 100
"O=C(N[C@@H](CSCc1ccccc1)C(=O)O)c1cc(N2CCN(c3nccc(C(F)(F)F)n3)CC2)nc(-c2ccc([N+](=O)[O-])cc2)n1 [Compound 52, (R)-3-Benzylsulfanyl-2-({2-(4-nitrophenyl)-6-[4-(4-trifluoromethylpyrimidin-2-yl)-piperazin-1-yl]pyrimidine-4-carbonyl}amino)propionic acid]",,10.4,15
"O=C(N[C@@H](COCc1ccccc1)C(=O)O)c1cc(N2CCN(c3nccc(C(F)(F)F)n3)CC2)nc(-c2ccc(F)cc2)n1 [Compound 54, (S)-3-Benzyloxy-2-({2-(4-fluorophenyl)-6-[4-(4-trifluoromethylpyrimidin-2-yl)-piperazin-1-yl]pyrimidine-4-carbonyl}amino)propionic acid]",,1.3,2.7
"O=C(N[C@@H](CSCc1ccccc1)C(=O)O)c1cc(N2CCN(c3nccc(C(F)(F)F)n3)CC2)nc(-c2ccc(F)cc2)n1 [Compound 55, (R)-3-Benzylsulfanyl-2-({2-(4-fluorophenyl)-6-[4-(4-trifluoromethylpyrimidin-2-yl)-piperazin-1-yl]pyrimidine-4-carbonyl}amino)propionic acid]",,2.4,20.5
"O=C(N[C@@H](COCc1ccccc1)C(=O)O)c1cc(N2CCN(c3nccc(C(F)(F)F)n3)CC2)nc(-c2cccs2)n1 [Compound 57, (S)-3-Benzyloxy-2-({2-thiophen-2-yl-6-[4-(4-trifluoromethylpyrimidin-2-yl)-piperazin-1-yl]pyrimidine-4-carbonyl}amino)propionic acid]",,28.7,13.3
"O=C(N[C@@H](CSCc1ccccc1)C(=O)O)c1cc(N2CCN(c3nccc(C(F)(F)F)n3)CC2)nc(-c2cccs2)n1 [Compound 58, (R)-3-Benzylsulfanyl-2-({2-thiophen-2-yl-6-[4-(4-trifluoromethylpyrimidin-2-yl)-piperazin-1-yl]pyrimidine-4-carbonyl}amino)propionic acid]",,4.5,10.6
"O=C(NC(Cc1ccc(Cl)cc1)C(=O)O)c1cc(N2CCN(c3nccc(C(F)(F)F)n3)CC2)nc(-c2cccs2)n1 (stereo not shown) [Compound 59, 3-(4-Chlorophenyl)-2-({2-thiophen-2-yl-6-[4-(4-trifluoromethylpyrimidin-2-yl)-piperazin-1-yl]pyrimidine-4-carbonyl}amino)propionic acid]",,1.8,17.1
"O=C(NC(Cc1ccc(Cl)cc1)C(=O)O)c1cc(N2CCN(c3nccc(C(F)(F)F)n3)CC2)nc(-c2ccoc2)n1 (stereo not shown) [Compound 62, 3-(4-Chlorophenyl)-2-({2-furan-3-yl-6-[4-(4-trifluoromethylpyrimidin-2-yl)-piperazin-1-yl]pyrimidine-4-carbonyl}amino)propionic acid]",,5.4,12.6
"C=C(NC(=O)c1cc(N2CCN(c3nccc(C(F)(F)F)n3)CC2)nc(-c2ccoc2)n1)C(=O)O [Compound 63, 2-({2-Furan-3-yl-6-[4-(4-trifluoromethylpyrimidin-2-yl)piperazin-1-yl]pyrimidine-4-carbonyl}amino)acrylic acid]",,21.4,> 100
